# Reference: ChEMBL document CHEMBL1201862, “PubChem BioAssay data set” (2004)
#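 Growth conditions: 96-well plates. Treatment: test compound, 48 hours, 5 concentrations. Analysis: linear interpolation between bracketing concentrations; unreached endpoints set to highest concentration. GI50: concentration for 50% inhibition of growth.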 The source made the active and inactive calls. No stated cut-off is given here; in the data, active = GI50 up to about 1.1 µM and inactive = higher.
# Key:
# Assay in all cases: NCI-60 cell line screen, 48 h
# [1] = tested on: NCI-H226
# [2] = tested on: MDA-MB-435
# [3] = tested on: ACHN
# [4] = tested on: SK-MEL-5
# [5] = tested on: NCI-H23
# [6] = tested on: SF-295
# [7] = tested on: SR
# [8] = tested on: HCT-15
# [9] = tested on: TK-10
# [10] = tested on: OVCAR-3
# [11] = tested on: A549
# [12] = tested on: MDA-MB-231
# [13] = tested on: 786-0
# [14] = tested on: DU-145
# [15] = tested on: COLO 205
# [16] = tested on: UO-31
# [17] = tested on: SK-MEL-2
# [18] = tested on: HCC 2998
Compound,GI50 [1],GI50 [2],GI50 [3],GI50 [4],GI50 [5],GI50 [6],GI50 [7],GI50 [8] [µM],GI50 [9],GI50 [10],GI50 [11],GI50 [12],GI50 [13],GI50 [14],GI50 [15],GI50 [16],GI50 [17],GI50 [18]
OC1c2ccccc2C(O)C2OC12 (configuration not stated),78.5 µM (inactive),> 100 µM (inactive),> 100 µM (inactive),> 100 µM (inactive),> 100 µM (inactive),> 100 µM (inactive),> 100 µM (inactive),> 100,> 100 µM (inactive),> 100 µM (inactive),> 100 µM (inactive),> 100 µM (inactive),> 100 µM (inactive),> 100 µM (inactive),> 100 µM (inactive),> 100 µM (inactive),> 100 µM (inactive),
COc1ccc(C(=O)/C=C/c2cccnc2)cc1OC,12.1 µM (inactive),14.8 µM (inactive),13.8 µM (inactive),14.1 µM (inactive),10.6 µM (inactive),13.4 µM (inactive),1.54 µM (inactive),11.4,15.7 µM (inactive),3.4 µM (inactive),14.3 µM (inactive),11.1 µM (inactive),4.51 µM (inactive),14.6 µM (inactive),10.9 µM (inactive),13.5 µM (inactive),13.2 µM (inactive),
Nc1ncc(/C=N/O)c(NCC2(CO)CC(CCc3ccccc3)C2)n1 (configuration not stated),12.9 µM (inactive),11.1 µM (inactive),,0.0577 µM (active),,1.02 µM (active),4.36 µM (inactive),13.1,> 10 µM (inactive),11 µM (inactive),2.48 µM (inactive),9.71 µM (inactive),15.2 µM (inactive),5.41 µM (inactive),10.8 µM (inactive),5.45 µM (inactive),16.1 µM (inactive),15.5 µM (inactive)
CC1=C(C)C2(C#N)C(=O)N3C(=NC(c4ccco4)NC3c3ccco3)C2(C#N)C(c2ccco2)N1 (configuration not stated),> 100 µM (inactive),> 100 µM (inactive),> 100 µM (inactive),> 100 µM (inactive),> 100 µM (inactive),> 100 µM (inactive),> 100 µM (inactive),> 100,> 100 µM (inactive),,> 100 µM (inactive),> 100 µM (inactive),> 100 µM (inactive),> 100 µM (inactive),> 100 µM (inactive),> 100 µM (inactive),> 100 µM (inactive),> 100 µM (inactive)
